Patent US20080220103A1, “METHOD FOR TREATING/CONTROLLING/KILLING FUNGI AND BACTERIA ON LIVING ANIMALS” (priority 2005, published 2008)
“And” between values parts separate entries of the source, which are not always exact repeats. Equal entries are not always repeated. Where two headings read alike, the source gives them in different places.

Experiments:
[1] = system: T. rubrum; assay: Minimum fungicidal concentration (Canton et al.); type: cell-based, Trichophyton rubrum; conditions: for MFC: Trichophyton rubrum
Method: (§1) Minimum fungicidal concentration (MFC): The minimum fungicidal concentrations of various agents were determined using the technique described by Canton et al. (Antimicrob Agents Chemother. 2004 8:2477-82). In that method, fungal conidia were collected following growth on potato dextrose agar (PDA) plates and were used to inoculate 96-well plates containing different concentrations of agents. Following incubation at 35° C. for 4 days (for dermatophytes) or 24 hours (for yeast), wells showing no visible growth were cultured to determine the MFC (defined as the lowest concentration of a given agent that kills>99.999% of fungal conidia or spores). The MFC value represents the level of the agent at which spores or conidia were killed.

[2] = system: All dermatophytes; assay: Minimum fungicidal concentration, pooled dermatophytes; type: cell-based, E. floccosum, T. rubrum, T. mentagrophytes; conditions: All dermatophytes, n = 18
Method: as §1
(§2) In the following Tables, MIC50 and MIC90 are defined as the minimal concentrations of a compound that can inhibit 50% and 90% of the tested organisms, respectively.

[3] = system: T. rubrum; assay: MIC, modified CLSI M38A broth dilution; type: cell-based, Trichophyton rubrum
Method: (§3) Minimum Inhibitory Concentration (MIC): Minimum inhibitory concentrations of synthetic and semisynthetic and natural products against dermatophytes were determined using a modification of the Clinical Laboratory Standards Institute (CLSI, formerly National Committee of Clinical Laboratory Standards, NCCLS) M38A standard method for dermatophytes, while MIC of these agents against Candida species were determined using the CLSI M27-A2 methodology. The method used to determine the MIC against bacteria was based on the CLSI document M7-A7.
(§4) For dermatophytes, serial dilutions of terbinafine, tolnaftate were prepared in a range of 0.004-2 μg/ml, while for miconazole concentrations ranged between 0.015-8 μg/ml. Finally, for essential oils, the concentrations tested were between 0.03-16 μg/ml. The only exception was tea tree oil where dilutions were prepared in a range of 0.0078-4 μg/ml. The MIC was read at 4 days post inoculation and defined as the lowest concentration of an agent to inhibit 80% of fungal growth as compared to the growth control (Table 2).

[4] = system: All dermatophytes; assay: MIC, modified CLSI M38A, pooled dermatophytes; type: cell-based, E. floccosum, T. rubrum, T. mentagrophytes
Method: as §3, §4, §2

[5] = system: E. floccosum; assay: Minimum fungicidal concentration (Canton et al.); type: cell-based, Epidermophyton floccosum; conditions: for MFC: Epidermophyton floccosum
Method: as §1

[6] = system: T. mentagrophytes; assay: Minimum fungicidal concentration (Canton et al.); type: cell-based, Trichophyton mentagrophytes; conditions: for MFC: Trichophyton mentagrophytes
Method: as §1

[7] = system: T. mentagrophytes; assay: MIC, modified CLSI M38A broth dilution; type: cell-based, Trichophyton mentagrophytes
Method: as §3, §4

[8] = system: S. epidermidis; assay: MIC, CLSI M7-A7, Mueller-Hinton; type: cell-based; conditions: Staphylococcus epidermidis
Method: as §3
(§5) For bacterial species, the medium used to evaluate the antibacterial activity of agents and essential oils was Mueller-Hinton (Oxoid Ltd., Basingstoke, Hampshire, England). Serial dilutions of miconazole, terbinafine, and tolnaftate were prepared in a range of 0.125-64 μg/ml and serial dilutions of tea tree oil were prepared in a range of 0.0078-4 μg/ml, while those for the rest of the essential oils were prepared in a range 0.031-16 μg/ml.

[9] = system: C. albicans; assay: MIC, CLSI M27-A2; type: cell-based, Candida albicans
Method: as §3
The remaining essential oils were prepared in a dilution range of 0.03-16 μg/ml. For Candida the MIC was read at 24 hours and defined as the lowest concentration to inhibit 50% of fungal growth as compared to the growth control (Table 4).

[10] = system: E. floccosum; assay: MIC, modified CLSI M38A broth dilution; type: cell-based, Epidermophyton floccosum
Method: as §3, §4

[11] = system: All bacteria (Staphylococcus species); assay: MIC, CLSI M7-A7, pooled bacteria; type: cell-based, S. aureus, S. epidermidis; conditions: Staphylococcus, n = 12
Method: as §3, §5, §2

[12] = Trichophyton rubrum, T. rubrum, n = 6
[13] = Trichophyton mentagrophytes, T. mentagrophytes, n = 6
[14] = Candida albicans, C. albicans, n = 6
[15] = Epidermophyton floccosum, E. floccosum, n = 6

Cc1cccc(N(C)C(=S)Oc2ccc3ccccc3c2)c1 [Tolnaftate, tolnaftate]
0.06 µg/mL: MFC ([1]; T. rubrum strain 1967, read-out: MFC) | MFC ([1]; T. rubrum strain 2098, read-out: MFC) | MFC ([1]; T. rubrum strain 2246, read-out: MFC) | MFC ([1]; T. rubrum strain 8063, read-out: MFC) | MFC ([1]; T. rubrum strain 8071, read-out: MFC) | MFC ([1]; T. rubrum, n = 6, read-out: MFC, row MIC50) | MIC50 ([4]; n = 18) | MIC ([7]; Trichophyton mentagrophytes, T. mentagrophytes strain 2124) | MIC ([7]; Trichophyton mentagrophytes, T. mentagrophytes strain 2125) | MIC ([7]; Trichophyton mentagrophytes, T. mentagrophytes strain 2127) | MIC50 [7, 13] | MIC ([10]; Epidermophyton floccosum, E. floccosum strain 1666) | MIC ([10]; Epidermophyton floccosum, E. floccosum strain 1798) | MIC ([10]; Epidermophyton floccosum, E. floccosum strain 1925) | MIC ([10]; Epidermophyton floccosum, E. floccosum strain 2165) | MIC50 [10, 15]
0.5 µg/mL: MFC ([5]; E. floccosum strain 1926, read-out: MFC) | MFC ([5]; E. floccosum strain 1961, read-out: MFC) | MFC ([5]; E. floccosum, n = 6, read-out: MFC, row MIC90) | MFC ([6]; T. mentagrophytes strain 2124, read-out: MFC) | MFC ([6]; T. mentagrophytes strain 2125, read-out: MFC) | MFC ([6]; T. mentagrophytes, n = 6, read-out: MFC, row MIC50)
> 64 µg/mL: MIC ([8]; S. epidermidis strain 8475, read-out: MIC) | MIC ([8]; S. epidermidis strain 8476, read-out: MIC) | MIC ([8]; S. epidermidis strain 8477, read-out: MIC) | MIC90 ([8]; S. epidermidis, n = 6) | MIC Range ([9]; C. albicans, n = 6) | MIC ([9]; Candida albicans, 24 h, C. albicans strain 1740, 50% inhibition, 24 hours, read-out: MIC) | MIC ([9]; Candida albicans, C. albicans strain 2153, read-out: MIC) | MIC ([9]; Candida albicans, C. albicans strain 8280 (multi-resistant), read-out: MIC) | MIC ([9]; Candida albicans, C. albicans strain 8283, read-out: MIC) | MIC ([9]; Candida albicans, C. albicans strain 8364, read-out: MIC) | MIC50 [9, 14] | MIC90 [9, 14] | MIC50 [11] | MIC90 [11]
0.06 to 1.0 µg/mL and 0.06 to 1 µg/mL: MFC Range [2]
0.015 µg/mL: MIC ([3]; Trichophyton rubrum, T. rubrum strain 1967) | MIC ([3]; Trichophyton rubrum, T. rubrum strain 2098) | MIC ([3]; Trichophyton rubrum, T. rubrum strain 8071) | MIC ([3]; Trichophyton rubrum, T. rubrum strain 8092) | MIC50 [3, 12] | MIC90 [3, 12]
0.008 to 0.125 µg/mL: MIC Range ([4]; n = 18, listed as tolnaftate) | MIC Range ([7]; T. mentagrophytes, n = 6)
0.5 to 1 µg/mL: MFC range (row MIC Range) ([6]; T. mentagrophytes, n = 6)
64 µg/mL: MIC ([9]; Candida albicans, C. albicans strain 2108, read-out: MIC)
0.25 µg/mL: MFC ([5]; E. floccosum strain 1666, read-out: MFC) | MFC ([5]; E. floccosum strain 1798, read-out: MFC) | MFC ([5]; E. floccosum strain 1925, read-out: MFC) | MFC ([5]; E. floccosum strain 2165, read-out: MFC) | MFC ([5]; E. floccosum, n = 6, read-out: MFC, row MIC50)
0.06 to 0.125 µg/mL: MFC range (row MIC Range) ([1]; T. rubrum, n = 6) | MFC Range ([2]; listed as tolnaftate) | MIC Range ([10]; E. floccosum, n = 6)
16 µg/mL: MIC ([8]; S. epidermidis strain 8473, read-out: MIC) | MIC50 ([8]; S. epidermidis, n = 6)
2 µg/mL: MIC ([8]; S. epidermidis strain 8472, read-out: MIC) | MIC ([8]; S. epidermidis strain 8474, read-out: MIC) | MIC ([8]; S. epidermidis, two strains, read-out: MIC values)
0.008 µg/mL: MIC ([3]; Trichophyton rubrum, T. rubrum strain 2246) | MIC ([3]; Trichophyton rubrum, T. rubrum strain 8063) | MIC ([7]; Trichophyton mentagrophytes, T. mentagrophytes strain 1720)
0.004 µg/mL: MIC ([7]; Trichophyton mentagrophytes, T. mentagrophytes strain 2126)
0.008 to 0.015 µg/mL: MIC Range ([3]; T. rubrum, n = 6)
1 µg/mL: MFC ([2]; read-out: MFC, row MIC90) | MFC ([6]; T. mentagrophytes strain 2127, read-out: MFC) | MFC ([6]; T. mentagrophytes strain 2128, read-out: MFC) | MFC ([6]; T. mentagrophytes, n = 6, read-out: MFC, row MIC90)
0.125 µg/mL: MFC ([1]; T. rubrum strain 8092, read-out: MFC) | MFC ([1]; T. rubrum, n = 6, read-out: MFC, row MIC90) | MFC ([2]; read-out: MFC, row MIC50) | MIC90 ([4]; n = 18) | MIC ([7]; Trichophyton mentagrophytes, T. mentagrophytes strain 2128) | MIC90 [7, 13] | MIC ([10]; Epidermophyton floccosum, E. floccosum strain 1926) | MIC ([10]; Epidermophyton floccosum, E. floccosum strain 1961) | MIC90 [10, 15]
0.25 to 0.5 µg/mL: MFC range (row MIC Range) ([5]; E. floccosum, n = 6)
>64 µg/mL: MIC ([9]; C. albicans strain 8280 (multi-resistant))
